# According to patent US4073926A, “Mono-quaternary ammonium salts of hydantoin and compositions thereof” (Glyco Chemicals, Inc., priority 1976, dated 1978):
# Where two headings read alike, the source gives them in different places.
# Tests used:
# Assay type in all cases: cell-based
# [1] = system: Pseudomonas aeruginosa No. 9027; experiment: Serial dilution anti-bacterial test in BBL Trypticase Soy Broth; settings: for MIC: Pseudomonas aeruginosa, read-out: Minimum Inhibitory Centration; on Test Culture and Results Pseudomonas aeruginosa # 9027: key: -: Denotes no test; +: Denotes growth; 0: Denotes no growth
# Procedure: (§1) The product compound of the Example 1 was tested for anti-bacterial and anti-fungal activity and compared to the known commercial broad spectrum bactericide/fungicide, according to the following procedure.
# (§2) Samples of the compound were prepared for testing by making a stock solution in sterile distilled water containing 10,000 parts per million. Serial dilutions of each sample were prepared in appropriate culture media which were then innoculated with the test cultures and incubated. The tests employing bacteria were performed in BBL Trypticase Soy Broth incubated for 48 hours at 35° C. The tests employing A. niger were performed in Difco Sabouraud Dextrose Broth incubated for 5 days at 26° C.
# (§3) The test cultures were Staphylococcus aureus No. 6538, Pseudomonas aeruginosa No. 9027 and Aspergillus niger No. 16404.
# [2] = system: Staphylococcus aureus No. 6538; experiment: as above; design: Test Culture and Results Staphyloccus aureus # 6538: key: -: Denotes no test; +: Denotes growth; 0: Denotes no growth; settings: for MIC: Staphylococcus aureus, read-out: Minimum Inhibitory Centration
# Procedure: as §1, §2, §3
# [3] = system: Aspergillus niger No. 16404; experiment: Serial dilution anti-fungal test in Difco Sabouraud Dextrose Broth; design: Test Culture and Results Aspergillis niger # 16404: key: -: Denotes no test; +: Denotes growth; 0: Denotes no growth; settings: for MIC: Aspergillus niger, NO.16404, 120 h, read-out: Minimum Inhibitory Centration
# Procedure: as §1, §2, §3
# [4] = 100 parts per million, 48 hours at 35° C
# [5] = 200 parts per million, 48 hours at 35° C
# [6] = 300 parts per million, 48 hours at 35° C
# [7] = 400 parts per million, 48 hours at 35° C
# [8] = 500 parts per million, 48 hours at 35° C
# [9] = 600 parts per million, 48 hours at 35° C
# [10] = 700 parts per million, 48 hours at 35° C
# [11] = 800 parts per million, 48 hours at 35° C
# [12] = 900 parts per million, 48 hours at 35° C
# [13] = 1000 parts per million, 48 hours at 35° C
# [14] = 100 parts per million, 5 days at 26° C
# [15] = 200 parts per million, 5 days at 26° C
# [16] = 300 parts per million, 5 days at 26° C
# [17] = 400 parts per million, 5 days at 26° C
# [18] = 500 parts per million, 5 days at 26° C
# [19] = 600 parts per million, 5 days at 26° C
# [20] = 700 parts per million, 5 days at 26° C
# [21] = 800 parts per million, 5 days at 26° C
# [22] = 900 parts per million, 5 days at 26° C
# [23] = 1000 parts per million, 5 days at 26° C
compound,measurement,setting,value
CCCCCCCCCCCC[N+](C)(C)CCCN1C(=O)NC(C)(C)C1=O [Example 1],Test Culture and Results Pseudomonas aeruginosa # 9027,[1]; [4],+
same,Test Culture and Results Pseudomonas aeruginosa # 9027,[1]; [5],+
same,Test Culture and Results Pseudomonas aeruginosa # 9027,[1]; [6],+
same,Test Culture and Results Pseudomonas aeruginosa # 9027,[1]; [7],+
same,Test Culture and Results Pseudomonas aeruginosa # 9027,[1]; [8],+
same,Test Culture and Results Pseudomonas aeruginosa # 9027,[1]; [9],0
same,Test Culture and Results Pseudomonas aeruginosa # 9027,[1]; [10],0
same,Test Culture and Results Pseudomonas aeruginosa # 9027,[1]; [11],0
same,Test Culture and Results Pseudomonas aeruginosa # 9027,[1]; [12],0
same,Test Culture and Results Pseudomonas aeruginosa # 9027,[1]; [13],0
same,MIC,"[1]; NO.9027, Pseudo. aerugin # 9027, 48 hours at 35° C",600 µg/mL
same,Test Culture and Results Staphyloccus aureus # 6538,"[2]; 1.56 parts per million, 48 hours at 35° C",+
same,Test Culture and Results Staphyloccus aureus # 6538,"[2]; 3.12 parts per million, 48 hours at 35° C",+
same,Test Culture and Results Staphyloccus aureus # 6538,"[2]; 6.25 parts per million, 48 hours at 35° C",+
same,Test Culture and Results Staphyloccus aureus # 6538,"[2]; 12.5 parts per million, 48 hours at 35° C",+
same,Test Culture and Results Staphyloccus aureus # 6538,"[2]; 25 parts per million, 48 hours at 35° C",0
same,Test Culture and Results Staphyloccus aureus # 6538,"[2]; 50 parts per million, 48 hours at 35° C",0
same,Test Culture and Results Staphyloccus aureus # 6538,[2]; [4],0
same,Test Culture and Results Staphyloccus aureus # 6538,[2]; [5],0
same,Test Culture and Results Staphyloccus aureus # 6538,[2]; [6],0
same,Test Culture and Results Staphyloccus aureus # 6538,[2]; [7],0
same,Test Culture and Results Staphyloccus aureus # 6538,[2]; [8],0
same,Test Culture and Results Staphyloccus aureus # 6538,[2]; [9],0
same,Test Culture and Results Staphyloccus aureus # 6538,[2]; [10],0
same,Test Culture and Results Staphyloccus aureus # 6538,[2]; [11],0
same,Test Culture and Results Staphyloccus aureus # 6538,[2]; [12],0
same,Test Culture and Results Staphyloccus aureus # 6538,[2]; [13],0
same,MIC,"[2]; NO.6538, Staph. aureus # 6538, 48 hours at 35° C",25 µg/mL
same,Test Culture and Results Aspergillis niger # 16404,[3]; [14],+
same,Test Culture and Results Aspergillis niger # 16404,[3]; [15],+
same,Test Culture and Results Aspergillis niger # 16404,[3]; [16],0
same,Test Culture and Results Aspergillis niger # 16404,[3]; [17],0
same,Test Culture and Results Aspergillis niger # 16404,[3]; [18],0
same,Test Culture and Results Aspergillis niger # 16404,[3]; [19],0
same,Test Culture and Results Aspergillis niger # 16404,[3]; [20],0
same,Test Culture and Results Aspergillis niger # 16404,[3]; [21],0
same,Test Culture and Results Aspergillis niger # 16404,[3]; [22],0
same,Test Culture and Results Aspergillis niger # 16404,[3]; [23],0
same,MIC,"[3]; Asperg. niger # 16404, 5 days at 26° C",300 µg/mL
"ClC=CC[N+]12CN3CN(CN(C3)C1)C2.[Cl-] [Dowicil 200, 1-(3-chloroallyl)-3,5,7-triaza-1-azonia adamantane chloride, reference compound]",Test Culture and Results Pseudomonas aeruginosa # 9027,[1]; [4],+
same,Test Culture and Results Pseudomonas aeruginosa # 9027,[1]; [5],+
same,Test Culture and Results Pseudomonas aeruginosa # 9027,[1]; [6],+
same,Test Culture and Results Pseudomonas aeruginosa # 9027,[1]; [7],+
same,Test Culture and Results Pseudomonas aeruginosa # 9027,[1]; [8],+
same,Test Culture and Results Pseudomonas aeruginosa # 9027,[1]; [9],+
same,Test Culture and Results Pseudomonas aeruginosa # 9027,[1]; [10],+
same,Test Culture and Results Pseudomonas aeruginosa # 9027,[1]; [11],+
same,Test Culture and Results Pseudomonas aeruginosa # 9027,[1]; [12],0
same,Test Culture and Results Pseudomonas aeruginosa # 9027,[1]; [13],0
same,MIC,"[1]; NO.9027, 48 h",900 µg/mL
same,Test Culture and Results Staphyloccus aureus # 6538,[2]; [4],+
same,Test Culture and Results Staphyloccus aureus # 6538,[2]; [5],0
same,Test Culture and Results Staphyloccus aureus # 6538,[2]; [6],0
same,Test Culture and Results Staphyloccus aureus # 6538,[2]; [7],0
same,Test Culture and Results Staphyloccus aureus # 6538,[2]; [8],0
same,Test Culture and Results Staphyloccus aureus # 6538,[2]; [9],0
same,Test Culture and Results Staphyloccus aureus # 6538,[2]; [10],0
same,Test Culture and Results Staphyloccus aureus # 6538,[2]; [11],0
same,Test Culture and Results Staphyloccus aureus # 6538,[2]; [12],0
same,Test Culture and Results Staphyloccus aureus # 6538,[2]; [13],0
same,MIC,"[2]; NO.6538, 48 h",200 µg/mL
same,Test Culture and Results Aspergillis niger # 16404,[3]; [14],+
same,Test Culture and Results Aspergillis niger # 16404,[3]; [15],+
same,Test Culture and Results Aspergillis niger # 16404,[3]; [16],+
same,Test Culture and Results Aspergillis niger # 16404,[3]; [17],+
same,Test Culture and Results Aspergillis niger # 16404,[3]; [18],+
same,Test Culture and Results Aspergillis niger # 16404,[3]; [19],+
same,Test Culture and Results Aspergillis niger # 16404,[3]; [20],+
same,Test Culture and Results Aspergillis niger # 16404,[3]; [21],0
same,Test Culture and Results Aspergillis niger # 16404,[3]; [22],0
same,Test Culture and Results Aspergillis niger # 16404,[3]; [23],0
same,MIC,[3],800 µg/mL
